Patent US20240130988A1, “Use of stilbene compounds in the preparation of anti-tumor drugs” (Guangzhou AnHao Pharmaceutical Technology CO., LTD., priority 2022, published 2024)
Marks after values point to notes of the source that are not given here.

How the values were obtained:
[1] = test system: LLC (mouse lung cancer cells); test: Enrichment of CD8+ cytotoxic T lymphocytes in tumor tissue, Lewis non-small cell lung cancer model of mice; format: in vivo; conditions: 400 mg/kg ip once a day for 10 days, CD8+ immunohistochemistry
[2] = test system: human liver cancer QGY7703; test: Human liver cancer QGY7703 transplanted tumor in nude mice; format: in vivo, BALB/C nude mice; parameters: key to RTV (d 18): RTV = Vt/Vo, tumor volume relative to volume at grouping (d1); conditions: QGY7703, 100 mg/kg iv × 14; for inhibition in vivo at 100 mg/kg: Mus musculus, QGY-7703, read-out: Tumor inhibitory rate %
Protocol: A human liver cancer QGY7703 model transplanted into nude mice was used in the experiment to investigate the anti-tumor effect of test compounds. The mice were intravenously injected at a dosage of 100 mg/kg for 14 days, and the tumor inhibition rate against human liver cancer QGY7703 was measured.
(§1) Preparation: The compound was prepared as the injection at the desired concentration with sterile normal saline, prior to administration.
Animal strain: BALB/C nude mice (SPF grade), weight: 19-21 g, gender: male. Number of animals in each treatment group: 8; number of animals in the control group: >12.
(§2) The tumor blocks of human liver cancer QGY7703 with good growth were cut into uniform small pieces of 3 mm under sterile conditions, and then subcutaneously inoculated into the right armpit of each mouse with a cannula. These mice were divided into 9 groups, 8 mice for each treatment group, while more than 12 mice were included in the control group.
(§3) 14 days after inoculation, the average volume of the tumor block was about 100 mm^3. The animals were regrouped based on the size of the tumor, and the animals with tumors that were too large and too small were sifted out. For each group, the average volume of tumors was basically the same, and then the mice were initially treated with test compounds. The mice in the treatment groups were intravenously injected once a day for 14 days, at a dosage of 0.1 mL/20 g body weight; the mice in the control group were given the same volume of sterile normal saline. From the 14th day of inoculation, the long diameter a (mm) of the tumor, together with the perpendicular short diameter b (mm), was measured using a digital electronic caliper, twice a week. The calculation formula of tumor volume is: TV=ab^2/2, and the formula for calculating the relative tumor volume is RTV=Vt/Vo, wherein Vo denotes the tumor volume measured when the mice were divided into groups (i.e. d1), and Vt is the tumor volume from each measurement.
(§4) The result determination is based on the following formula: […]

[3] = test system: LLC (mouse lung cancer cells); test: Enrichment of CD8+ cytotoxic T lymphocytes in tumor tissue, Lewis non-small cell lung cancer model of mice; format: in vivo; conditions: 400 mg/kg ip once a day for 10 days, flow cytometry
Protocol: LLC (mouse lung cancer cells) were a mouse Lewis lung cancer cells.
The modeling method for LLC cell lung cancer in mice was as follows:
LLC cells were cultured in the general medium containing 10% fetal bovine serum and 100 μg/mL of double antibody (penicillin±streptomycin), and then cultivated in a 37° C., 5% CO2 cell incubator for routine incubation. LLC cells, that had grown to logarithmic phase, were digested with 0.25% trypsin (containing EDTA) to form a cell suspension, which was centrifuged at 1000 rpm/min for 3 min. The supernatant was discarded, and cell precipitates were collected, that were resuspended in culture medium without serum and double antibody. The cell suspension was further centrifuged to adjust the volume under the same conditions with the aid of cell counting, so as to prepare a cell suspension at a concentration of […] was injected into the right abdomen of each mouse, to complete the inoculation of tumor cells. The tumor was allowed to grew about 10 days, and the volume reached around 100 mm^3, before the mice were treated with test compounds.
Drug preparation: compounds 1-13 of the present invention were respective prepared into an injection with injection water.
Experimental methods: The model mice with LLC cell lung cancer were treated by intraperitoneal administration of 400 mg/kg injection containing the compound of the present invention. The model mice were divided into a negative control group (model mice only receiving equal volume of injection water by intraperitoneal administration) and treatment groups (model mice receiving the injection prepared with the compound of the present invention by intraperitoneal administration). The intraperitoneal injection regimen was carried out by injecting once a day at the pre-determined time. Before administration, the mice were weighed, and then treated with the injection at a dosage of 10 mL/kg, After successive administration for 10 days, that is, on the 10th day after receiving treatment, the mice were sacrificed, and the subcutaneous tumors were stripped to detect the ratio of cytotoxic T lymphocyte antigen CD8^+ in tumor tissues of the negative group and the treatment group by flow cytometry.
CD8^+ tumor-infiltrating lymphocytes in tumor tissues were detected by flow cytometry. The specific steps were as follows:
The mice were sacrificed, and then the abdominal epidermis of the mice was cut open using ophthalmic scissors, to fully expose the subcutaneous tumors. The subcutaneous tumor tissues on the right side of the mouse's abdomen were gradually peeled off with tweezers and ophthalmic scissors. After rinsing with PBS, the stripped tumor tissues were cut into about 1 mm using ophthalmic scissors, and then placed in 3 mL of PBS buffer containing 100 μg/mL of hyaluronidase. A centrifuge tube containing a dispersed liquid was placed in a water bath and kept at 37° C. for 20 min. A pipette was used to blow and shake the digestive tumor tissues every 5 minutes to fully digest. The dispersed liquid containing undigested tumor tissues was filtered through a 70 μm stainless steel cell screen, and the remaining undigested tumor tissues were ground using a push rod of 20 mL syringe on 70 μm cell screen and rinsed 5 times with 1 mL of PBS while grinding. The cell suspension passing the cell screen was transferred to a 15 mL centrifuge tube, and centrifuged at 4000 rpm for 3 min. Then, cell precipitates were collected, to which was added 2 mL of red cell lysis buffer, and rested for 10 min, followed by centrifuging at 4000 rpm for 3 min. After washing with PBS, the cells were resuspended by adding 2-3 mL of PBS.
An appropriate amount of cell suspension was used as the sample for flow cytometry, and after counting, the cell suspension was adjusted to have a concentration of 5×10^6/mL. 100 μL of cell suspension was added to a test tube with a pipettor. […]

[4] = test system: nonfusion human umbilical vein endothelial cells (HUVEC); test: TMT quantitative proteomics on nonfusion HUVEC; format: cell-based; conditions: 10 μM; for Differentially expressed proteins: more than 1.5 times or less than 0.67 times vs control; for Down-regulation / Up-regulation: number of proteins
Protocol: Nonfusion human umbilical vein endothelial cells (HUVEC) were used to simulate new tumor blood vessels, while confluent HUVECs were used to simulate normal blood vessels, to construct experimental models. Two different HUVECs were treated with the compound at the same dosage of 10 μM, to simulate the fusion cell state, and proteome samples were prepared. After preparation of peptide segments, the segments were labelled with TMT, and a quantitative proteomics analysis was carried out. The efficiency of TMT labeling was higher than 99.4%, and a total of 28372 peptide segments from 4934 proteins were characterized using a strict 1% FDR limit. Among them, 4909 quantifiable proteins were identified, indicating reliable quality. The nonfusion treatment groups and the fusion treatment groups were compared with their respective control groups, and the control group was used as a reference, with a significant difference of more than 1.5 times or less than 0.67 times as the protein score standard.
The total cell proteins of the samples in nonfusion cell groups and fusion cell groups were extracted separately, and 2 μg of protein samples were subjected to quality analysis, The quantitative proteomics experiments were carried out, and the protein concentration assay was performed by quantitative grayscale measurement.
Data analysis: The human protein database (Scientific name: Homo sapiens, 9606) was downloaded from UniProt, MaxQuant (v 1.5.5.1) search engine was used to search for the database. A total of 4934 proteins (4909 quantitative proteins) and 28372 peptide segments were identified by TMT quantitative proteomics experiments, with a labeling efficiency of more than 99%, and the complete digestion occupied 86.3%.

human lung cancer A549 = test: Human lung cancer A549 transplanted tumors in nude mice; format: in vivo, BALB/C nude mice; conditions: A549, 400 mg/kg ig × 14
Protocol: In this experiment, a human lung cancer A549 model transplanted into nude mice was selected to study the anti-tumor effect of test compounds. The mice were treated at a dosage of 400 mg/kg by gavage for 14 days, and the tumor inhibition rate against human lung cancer A549 was measured.
Preparation: The compound was prepared as the solution at the desired concentration with distilled water, prior to administration.
Animal strain: BALB/C nude mice (SPF grade), weight: 19-21 g, gender: male. Number of animals in each treatment group: 8; Number of animals in the control group: >12.
Lung cancer A549 tumor blocks with good growth were chosen and cut into uniform small pieces of 3 mm under sterile conditions, and then subcutaneously inoculated into the right armpit of each mouse with a cannula. These mice were divided into 9 groups, 8 mice for each treatment group, while more than 12 mice were included in the control group.
14 days after inoculation, the average volume of the tumor mass was about 100 mm^3. The animals were regrouped based on the size of the tumor, and the mice with tumors that were too large and too small were eliminated. For each group, the average volume of tumors was basically the same, and then the mice were treated with test compounds. The mice in the treatment groups were administered once a day by gavage for 14 successive days, at a dosage of 0.5 mL/20 g body weight; the mice in the control group were given the same volume of physiological saline. From the 14th day of inoculation, the long diameter a (mm) of the tumor, together with the perpendicular short diameter b (mm), was measured using a digital electronic caliper, twice a week. The calculation formula of tumor volume is: TV=ab^2/2, and the formula for calculating the relative tumor volume is RTV=Vt/Vo, wherein Vo denotes the tumor volume measured when the mice were divided into groups (i.e. d1), and Vt is the tumor volume from each measurement.
as §4

[5] = test system: human gastric cancer MGC803; test: Human gastric cancer MGC803 transplanted tumor in nude mice; format: in vivo, BALB/C nude mice; conditions: MGC803, 200 mg/kg ip × 14
Protocol: A human gastric cancer MGC803 model transplanted into nude mice was used in the experiment to investigate the anti-tumor effect of test compounds.
as §1
Animal strain: BALB/C nude mice (SPF grade), weight: 19-21 g, gender: male.
Number of animals in each treatment group: 8; number of animals in the control group: >12.
as §2, with “gastric” for “liver”, “MGC803” for “QGY7703”
as §3, with “mice” for “mice in the treatment groups”, “intraperitoneally” for “intravenously”, “0.2” for “0.1”, “weight.” for “weight; the mice in the control group were given the same volume of sterile normal saline.”, “groups(i.e.” for “groups (i.e.”
as §4

| Compound | The ratio of distribution area in tumor tissues (%) ([1]; 400 mg/kg) | inhibition in vivo at 100 mg/kg [2] [%] | RTV (d 18) [2] | The ratio of CD8^+ in total immune cells of tumor tissues (%) ([3]; 400 mg/kg) | Differentially expressed proteins [4] | Down-regulation [4] | Up-regulation [4] | The ratio of distribution area in tumor tissues (%) [1] [%] | The ratio of CD8^+ in total immune cells of tumor tissues (%) [3] [%] | RTV (d 22) (human lung cancer A549) | inhibition in vivo at 400 mg/kg (human lung cancer A549; Mus musculus, po, read-out: Tumor inhibitory rate %) [%] | RTV (d 18) [5] | Tumor inhibitory rate % [5] |
| --- | --- | --- | --- | --- | --- | --- | --- | --- | --- | --- | --- | --- | --- |
| COc1ccc(/C=C(/C(=O)O)c2cc(OC)c(OC)c(OC)c2)c(O)c1O [Compound 2, (E)-3-(2,3-dihydroxy-4-methoxyphenyl)-2-(3,4,5-trimethoxylphenyl)acrylic acid] | 7.147 ± 0.7528 | 64.9 | 4.51 ± 0.58 | 0.0823 ± 0.0112 | 298 | 288 | 10 | – | – | – | – | – | – |
| COc1cc(/C(=C\c2cc(O)c(OC)c(Cl)c2)C(=O)O)cc(OC)c1OC [Compound 5, (E)-3-(3-chloro-5-hydroxy-4-methoxyphenyl)-2-(3,4,5-trimethoxyphenyl) acrylic acid] | – | – | – | – | 304 | 297 | 7 | 7.438 ± 0.7610 | 0.0833 ± 0.0107 | 5.73 ± 1.25 | 51.2 | – | – |
| COc1cc(/C=C(/C(=O)O)c2cc(OC)c(OC)c(OC)c2)ccc1O [Compound 7, (E)-3-(4-hydroxy-3-methoxyphenyl)-2-(3,4,5-trimethoxyphenyl)acrylic acid] | – | 64 | 4.63 ± 0.75 | – | 289 | 281 | 8 | 6.653 ± 0.7791 | 0.0774 ± 0.0115 | – | – | 4.46 ± 0.62 | 61.28^## % |
